Measurements: patent publication US11400130B2, “Inhibitors for proliferating cell nuclear antigen and uses” (Purdue Research Foundation, priority 2015, dated 2022)
Peptide text beside a SMILES is read from it. * marks the point of attachment. 5FAM = O=C1OC2(c3ccc(O)cc3Oc3cc(O)ccc32)c2ccc(C(=O)*)cc21; Ahx = NCCCCCC(=O)O

Columns and labels:
PCNA [1] = target: T1, PCNA (Homo sapiens, UniProt P12004); assay: Fluorescence polarization binding assay (PCNA titration for affinity of FAM-PL); details: fixed FAM-PL (5 nM), two-fold increasing recombinant His-tagged PCNA, non-linear regression; read-out: Kd of FAM-PL peptide for PCNA
T1 construct: made in house; host or cells: E. coli BL21 (DE3)
Protocol: After synthesis and purification, peptoids were screened in a fluorescence polarization (FP) assay to find ligands that disrupted the interaction between His-tagged PCNA and fluorescein-labeled Pogo Ligase peptide (FAM-PL) (Kontopidis, G., et al. Proc. Natl. Acad. Sci. U.S.A 2005, 102 (6), 1871-1876). In the design of the assay, conditions were adopted from Pedley et al., 2016, to improve the dynamic range between bound and unbound FAM-PL. While an acceptable Z-score was determined using the original 10 nM peptide and 100 nM PCNA (FIG. 4), an improved dynamic range was established by adjusting the ligand and receptor concentrations. […] Because more than 80% of the peptide was bound at a PCNA concentration of […] this protein-receptor concentration was selected for use in subsequent displacement assays. The inclusion of PCNA was included in the overall calculations of Ki values.
Fluorescence Polarization Binding Assay. […] Fluorescence polarization and resultant anisotropy were measured on a BioTek Synergy 4 Multi-Detection Microplate Reader using an excitation filter of 485 nm and an emission filter of 530 nm, each with a 20 nm band-pass. […]
FO values were analyzed using non-linear regression statistics in OriginPro 2015, representing them as the mean±standard error of the mean (Y), and plotting them as a function of the monomeric PCNA protein concentration (X). […]

PCNA [2] = target: T1, PCNA; assay: Fluorescence polarization competition assay (displacement of FAM-PL from His-tagged PCNA); type: binding; details: for Disruption of PCNA-PL peptide binding by individual fragments: individual peptoid fragments screened alone, dose response (FIG. 7); for Ki: calculated from IC50 using equation 5 (modified Cheng-Prusoff), 95% confidence interval around the mean; for IC50: disruption of PCNA / FAM-PL binding, values are 95% confidence interval around the mean
Protocol: The inclusion of PCNA was included in the overall calculations of Ki values.
Anisotropy was converted to fractional occupancy, and IC50 values were determined for each peptoid by performing non-linear regression fits of each dose response curve using equation 4. Inhibition constants (Ki values) were calculated from the resultant IC50 values using equation 5 (Table 2).
Fluorescence Polarization Competition Assay. […] The plate was allowed to incubate at room temperature in the dark for 30 minutes prior to fluorescent measurement. […] Anisotropy values were converted to fractional occupancy using equation 2, and IC50 values were calculated by fitting the data to equation 4:
[formula] wherein n is the Hill slope.

T1 sequence (P12004 with tags, fused parts or gaps): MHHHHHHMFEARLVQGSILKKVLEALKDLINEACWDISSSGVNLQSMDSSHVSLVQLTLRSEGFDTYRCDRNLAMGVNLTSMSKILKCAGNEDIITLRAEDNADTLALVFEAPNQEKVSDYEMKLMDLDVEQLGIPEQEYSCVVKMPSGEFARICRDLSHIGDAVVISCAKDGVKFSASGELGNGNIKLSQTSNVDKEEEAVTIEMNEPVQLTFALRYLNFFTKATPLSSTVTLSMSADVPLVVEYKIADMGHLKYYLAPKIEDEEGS

Structure (SMILES) | Kd (PCNA [1]) | Ki (PCNA [2]) | IC50 (PCNA [2]) | Disruption of PCNA-PL peptide binding by individual fragments (PCNA [2])
CC(C)(C)[Si](C)(C)OCc1ccc(CN)cc1 [NBal] | – | – | – | none of the fragments showed any evidence of inhibition
CC(C)(C)OC(=O)c1ccc(CN)cc1 [NBza] | – | – | – | none of the fragments showed any evidence of inhibition
NCCO [NEal, ethanol amine] | – | – | – | none of the fragments showed any evidence of inhibition
NCc1ccc(CN(CC(N)=O)C(=O)CN(CCO)C(=O)CN[C@H](CO)Cc2cc(I)c(Oc3ccc(O)cc3)c(I)c2)cc1 [T2AA-NEal-NMma] | – | 114 ± 23.1 nM | 1180 ± 240 nM | –

Now from value to compound, other results behind:

Kd (PCNA [1]) | Ki (PCNA [2]) | IC50 (PCNA [2]) | Structure (SMILES) | Disruption of PCNA-PL peptide binding by individual fragments (PCNA [2])
107 nM | – | – | CC[C@H](C)[C@H](NC(=O)[C@H](CCCCN)NC(=O)[C@H](CCCCN)NC(=O)[C@H](CCC(N)=O)NC(=O)[C@H](CC(C)C)NC(=O)[C@@H](NC(=O)[C@H](C)NC(=O)[C@H](CO)NC(=O)CCCCCNC(=O)c1ccc2c(c1)C(=O)OC21c2ccc(O)cc2Oc2cc(O)ccc21)C(C)C)C(=O)N[C@H](C(=O)N[C@@H](CC(=O)O)C(=O)N[C@@H](Cc1ccc(O)cc1)C(=O)N[C@@H](Cc1ccccc1)C(=O)N[C@@H](Cc1c[nH]cn1)C(=O)N1CCC[C@H]1C(=O)N[C@@H](CCCCN)C(=O)N[C@@H](CCCCN)C(N)=O)[C@@H](C)O [FAM-PL] ({5FAM-Ahx}-SAVLQKKITDYFHPKK-NH2) | –
– | 1240 ± 190 nM | 12900 ± 1970 nM | NCCCCNCC(=O)N(CC(=O)N(CC(N)=O)Cc1ccc(CN)cc1)Cc1ccc2c(c1)OCO2 [NLys-NPip-NMma] | –
– | 1120 ± 245 nM | 11700 ± 2550 nM | NCc1ccc(CNCC(=O)N(CC(=O)N(CC(N)=O)Cc2ccc(CO)cc2)Cc2ccc3c(c2)OCO3)cc1 [NMma-NPip-NBal] | –
